{"source": "patent US20210228500A1", "about": "“CELLULAR RETINOID BINDING PROTEIN ANTAGONISTS AND USES THEREOF” (CASE WESTERN RESRVE UNIVERSITY, priority 2018, published 2021)", "key": {"[1]": {"assay": "Detection and quantification of abn-CBD in the ocular tissues", "format": "in vivo, Balb/cJ mice", "conditions": "single dose 15 mg kg^−1 i.p.", "experimental": "Balb/cJ mice were i.p. injected with 15 mg kg^−1 dose of abn-CBD. At the time points between 1 and 15 h, they were deeply anesthetized by ketamine/xylazine injection and perfused with PBS. Perfused eyes were collected and homogenized in 1 mL of PBS/methanol (v/v). During the homogenization, 100 pmol of an internal standard (3d-abn-CBD) was added. The samples were extracted with 4 mL of hexane and centrifuged at 15,000 g for […] at 4° C. The organic solvent was transferred to glass test tubes and dried in a Savant speedvac concentrator (Thermo Fisher Scientific). The extracted compounds were dissolved in 0.3 mL of ethanol and subjected to LC/MS analysis and quantification as described above."}, "cannabinoid receptor 1": {"target": "cannabinoid receptor 1 (Homo sapiens, UniProt P21554)", "sequence (P21554 whole entry, species assumed)": "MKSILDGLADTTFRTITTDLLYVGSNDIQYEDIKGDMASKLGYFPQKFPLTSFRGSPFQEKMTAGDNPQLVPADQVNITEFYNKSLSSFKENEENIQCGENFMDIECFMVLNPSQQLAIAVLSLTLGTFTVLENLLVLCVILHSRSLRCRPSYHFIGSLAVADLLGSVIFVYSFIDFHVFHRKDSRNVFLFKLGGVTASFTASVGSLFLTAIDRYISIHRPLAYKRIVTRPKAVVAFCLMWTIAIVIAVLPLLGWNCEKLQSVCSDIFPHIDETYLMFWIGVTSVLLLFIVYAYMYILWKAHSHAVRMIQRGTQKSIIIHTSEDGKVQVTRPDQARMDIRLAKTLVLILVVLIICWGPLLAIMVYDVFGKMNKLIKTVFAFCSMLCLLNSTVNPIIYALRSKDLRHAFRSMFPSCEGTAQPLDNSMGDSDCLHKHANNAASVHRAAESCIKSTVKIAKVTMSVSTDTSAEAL", "conditions": "cited from earlier work"}, "holo-CRBP1": {"target": "T1, holo-CRBP1 (Homo sapiens, UniProt P09455)", "T1 construct": "made in house", "T1 sequence (P09455 1-135)": "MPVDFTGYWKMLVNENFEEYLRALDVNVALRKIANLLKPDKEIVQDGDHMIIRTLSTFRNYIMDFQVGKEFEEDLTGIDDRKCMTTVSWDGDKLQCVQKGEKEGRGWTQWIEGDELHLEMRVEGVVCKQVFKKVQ", "assay": "High-throughput screening for CRBP1 ligands", "format": "binding", "conditions": "986 compounds at 5 μM, 1 μM holo-CRBP1", "experimental": "The principle of the fluorescence binding assays described above was adapted for the HTS in a 96-well plate format. Each well contained 0.2 mL of 20 mM Tris/HCl, pH 7.4 and 1 μM of holo-CRBP1. Tested compounds from two independent libraries (Bioactive Lipid I Screening Library form Cayman Chemicals and Screen-Well Bioactive Lipid Library from Enzo Life Science, total of 986 chemicals) were delivered in dimethyl sulfoxide (DMSO) to the final concentration of 5 μM. After 15 min of incubation at room temperature (RT), the samples were excited at 285 nm, and the fluorescence signals from CRBP1 (at 350 nm) and atROL (at 480 nm) were recorded in a Flexstation3 microplate reader (Molecular Devices). Changes in the fluorescence emissions were evaluated by calculating ratio between signals at 480 and 350 nm. To eliminate false positives, only those wells in which the increase in protein fluorescence was accompanied by proportional decline in the fluorescence of atROL were considered as potential hits.\nTo search for compounds interacting with CRBP1, we developed an HTS strategy that minimalized experimental bias associated with investigating the binding of hydrophobic ligands to a protein specialized for interaction with small lipophilic molecules. It is based on the fluorescence properties of CRBP1 in complex with its natural ligand, atROL. […]"}, "[2]": {"test_system": "visual cycle retinoids in mouse eye", "assay": "Photobleaching and visual chromophore regeneration, ocular retinoid analysis", "format": "in vivo, Balb/cJ mice", "conditions": "0.25 mg 1.5 h prior to flash of light bleaching 75% of rhodopsin", "experimental": "Balb/cJ mice were dark adapted for at least 24 h before the experiment. […] After the light exposure, the mice were kept in dark and euthanized at time intervals between 1 min to 8 h. The eyes were removed, flash frozen in liquid nitrogen, and stored in −80° C. until retinoid analysis.\nAll procedures related to the retinoid analysis were done under dim red light. To extract retinoids, enucleated eyes were transferred to a glass/glass homogenizer and submerged in 1 mL of 40 mM hydroxylamine in a 1:1 solution of PBS/methanol (v/v). The eyes were thoroughly homogenized and incubated at RT for 20 min to allow derivatization of retinylaldehydes to retinaldehdye oximes. The retinoids were extracted with 4 mL of hexane. To facilitate the fraction separation, the samples were centrifuged at 5000 g for 10 min, after which the upper organic phase was collected in a glass test tube. The organic solvent was dried in a rotary SpeedVac, and the residual retinoids were redissolved in […] of hexanes, and subjected to HPLC analysis. Separation of retinoids was achieved on a normal phase column (Agilent Zorbax Sil 5 μm 4.6×250 mm) in a step gradient of ethyl acetate in hexane (1% for 10 min followed by 10% for 40 min at a constant flow rate of 1.5 mL min^−1). Elution of retinoids was monitored at 325 and 360 nm wavelengths. All-trans-retinyl esters, all-trans- and 11-cis-retinaldehdye oximes as well as atROL were identified based on their elution times and characteristic UV/vis spectra. Retinoids were quantified based on linear correlations between the amount of injected synthetic standards and the area under chromatographic peaks.\nNext, we examined the impact of abn-CBD on vitamin A metabolism in vivo. For this purpose, we analyzed the flow of retinoids via the visual cycle during the regeneration of visual chromophore after exposure to bright light. […] The light intensity was set up to cause photoisomerization in 75% of rhodopsin as indicated by the decrease in the amount of 11-cis-retinal measured immediately after the light exposure (FIG. 7). […]"}}, "note": "“Also recorded” adds a separate entry of the source.", "data": [{"compound": "C=C(C)[C@@H]1CCC(C)=C[C@H]1c1c(O)cc(O)cc1CCCCC", "note": "[abn-CBD, 4-[(1R,6R)-3-Methyl-6-prop-1-en-2-ylcyclohex-2-en-1-yl]-5-pentylbenzene-1,3-diol]", "values": [{"measurement": "half-life", "setting": "[1]; Balb/cJ, mouse, eye (PBS-perfused, homogenate), ip", "value": "~7", "unit": "h"}, {"measurement": "time of maximum ocular level after the injection", "setting": "[1]", "value": 2, "unit": "h"}, {"measurement": "ocular level, maximum value", "setting": "[1]; PBS-perfused eyes", "value": 58, "unit": "pmol/eye"}, {"measurement": "interaction with cannabinoid receptor 1", "setting": "cannabinoid receptor 1", "value": "does not interact"}, {"measurement": "HTS result", "setting": "holo-CRBP1", "value": "unique hit; also recorded: single hit"}, {"measurement": "atROL level during chromophore regeneration", "setting": "[2]", "value": "transient accumulation of atROL"}, {"measurement": "rate of 11-cis-retinaldehyde regeneration", "setting": "[2]", "value": "noticeably slower"}, {"measurement": "rate of all-trans-retinaldehyde clearance vs control", "setting": "[2]", "value": "no differences"}]}]}
